Data as given in patent publication US20220378889A1, “NEO-EPITOPE VACCINES AND METHODS OF TREATING CANCER” (Epivax Therapeutics Inc., priority 2019, published 2022).

Legend:
[1] = tested on: CT26 tumor cells; experiment: CT26 tumor growth and survival after vaccination (Example 1); settings: N=10 mice per group
Description: Mice were separated into three groups: 1) PBS control; 2) poly-ICLC (vehicle); 3) ANCER™-selected CT26 Neoantigen Peptides+poly-ICLC. • Group 1: PBS, sc injections at days 5, 8, 12, 15, 19, 22, and 26. • Group 2: poly-ICLC, 50 μg, sc injections at days 5, 8, 12, 15, 19, 22, and 26. • Group 3: 5 μg/ANCER™-selected CT26 Neoantigen Peptide (100 μg total ANCER™-selected CT26 Neoantigen Peptides)+50 μg poly-ICLC, sc injections at days 5, 8, 12, 15, 19, 22, and 26.
All mice (N=10 mice per group) were injected 3*10^5 CT26 tumor cells in 0% Matrigel at day 0. Mice were sacrificed once the tumor volume reached 2,000 mm^3 or at day 45, whichever came first.

[2] = tested on: CT26 murine colon tumor cells; experiment: CT26 tumor growth with or without poly-ICLC (Example 13); assay type: in vivo, BALB/c mice; settings: day 25 post-tumor implantation; sc twice per week for three weeks from day 4
Description: The goal of this experiment was to determine the requirement for the inclusion of the adjuvant poly-ICLC in a peptide vaccine containing ANCER™ selected neoantigens. For this experiment, female BALB/c mice were implanted subcutaneously with 3×10^5 CT26 murine colon tumor cells. Tumor growth was monitored by caliper measurement and mice were sacrificed 45 days after tumor implantation or when tumor volumes reached 2000 mm^3, whichever came first.
Four vaccine groups were tested (n=10 mice/group):
Group 2=PBS with 50 μg poly-ICLC
Group 3=20 ANCER™ selected (uncapped) peptides with 50 μg poly-ICLC
Group 4=20 ANCER™ selected (uncapped) peptides only
Peptide vaccines were comprised of 20 different ANCER™ selected peptides at a concentration of 5 μg/peptide for a total dose of 100 μg peptide per immunization. Mice were immunized subcutaneously in the opposite flank from tumor implantation twice per week for three weeks, starting at day 4 post-tumor implantation.

poly-ICLC
mice reaching endpoint (tumor volume of at least 2,000 mm^3) by day 28 [1]: 60% | control of tumor growth relative to PBS / poly-ICLC alone [2]: no difference in tumor growth kinetics
